Source: patent EP1432717B1, “SUBSTITUTED DISILOXANES, METHOD FOR THE PRODUCTION THEREOF AND THE USE THEREOF FOR REVERSAL OF MULTIDRUG RESISTANCE (MDR)” (Molnar, Jozsef, priority 2000, dated 2002)
Counter-ions that a name gives are not always drawn.

What was measured:
[1] = In vivo toxicity test in mice; design: species or system Mäuse; conditions: for survival: mouse, in vivo, 10 mg/kg, 10,0 mg/kg, read-out: Überleben der Mäuse
Excerpt: Der Erfindung liegt die Aufgabe zugrunde, Verbindungen zur Verfügung zu stellen, mit denen sich die Wirksamkeit von Zytostatika verbessern lässt. Die Aufgabe wurde erfindungsgemäß durch die Bereitstellung von neuen organischen Siliciumverbindungen der Formel I gelöst. Die erfindungsgemäßen neuen substituierten Disiloxane der allgemeinen Formel I [drawing 2] enthalten folgenden Substituenten: • R^1 = Methyl, Ethyl, Phenyl oder tertiär Butyl • R^2 = X (Halogen: Cl, Br, F), CX3, (para, ortho, meta), • n = 0-1, m = 1-3 • Q = Alkyl, Cycloalkyl, sekundäres Amin, Morpholin, substituiertes Piperazin, worin [drawing 3] • R^3 = Methyl, Ethyl, Butyl, Phenyl, Benzyl, -(CH2)pSi(R^4)3 mit p = 1 - 3 und R^4 = Methyl, Ethyl bedeuten. Die erfindungsgemäß bereitgestellten Verbindungen werden durch Umsetzung von substituierten Alkyl-dichlor-silanen mit Aryl-Grignard-Verbindungen gewonnen und daraus durch acide Hydrolyse Disiloxane, die ihrerseits im Fall von Halogen-Alkylen mit Aminen umgesetzt werden. In speziellen Fällen wird Magnesium mit 4-Fluor-brombenzol umgesetzt und daraus durch Reaktion mit 3-Chlorpropyl-methyl-dichlorsilan das Zwischenprodukt 1,3-bis(4-fluorophenyl)-1,3-dimethyl-1,3-bis(3-chloropropyl)-disiloxan gewonnen. Dieses Produkt wird seinerseits mit Morpholin zu ALIS 409 oder mit 4-Butyl-piperazin zu ALIS 421 (Beispiele 2 und 3) umgesetzt. Überraschendweise hat sich herausgestellt, dass es sich bei den erfindungsgemäßen neuen substituierten Disiloxane um biologisch wirksame, nicht toxische Verbindungen handelt, die zur Umkehrung der Multidrogeresistenz (Mdr) der malignen Tumorzellen und pathogenen Erreger fähig sind und die Effluxpumpenaktivität der malignen Mdr-Tumorzellen und die Pgp-Resistenz von parasitären Zellen, Pilzen sowie von Bakterien bereits im ng/ml-Konzentrationsbereich stark inhibieren. Die neuen substituierten Disiloxane finden Verwendung als Zytostatika und in der Chemotherapie - auch in Kombination mit anderen Mitteln. Es ist überraschend, dass sie eine starke Chemosensitation der resistenten Mdr-Tumorzellen verursachen und ihre Effluxpumpenaktivität unterdrücken. Dadurch lässt sich die intrazelluläre Chemotherapeutikum-Konzentration so hoch ansetzen, dass kein Unterschied mehr im Vergleich mit parentalen Zellen nachgewiesen werden kann. Die als ALIS-Verbindungen bezeichneten erfindungsgemäßen Substanzen sind dadurch gekennzeichnet, dass sie biologisch wirksam sind und die Effluxpumpenaktivität der malignen Mdr-Tumorzellen, Pgp-Resistenz von parasitären Zellen, Pilzen und Bakterien bereits im ng/ml-Konzentrationsbereich stark inhibieren. Auch in höheren Konzentration wirken sie in vivo nicht toxisch. Nach dem Zell-Substanz-Kontakt sind sie sofort wirksam. Die ALIS-Verbindungen sind dadurch gekennzeichnet, dass sie hauptsächlich die Wirksamkeit der Chemotherapie erhöhen, aber auch allein zytostatisch wirken. Die Toxizität der neuen Verbindungen wurde im Maussytem getestet. Das Ergebnis war überraschend gut. Trotz zehnfacher Überdosierung konnte der ID-50 Wert nicht ermittelt werden, da die Mäuse die Behandlung 100%-ig überlebt haben und kein Gewichtsverlust auftrat. In manchen Fällen bekamen die Mäuse scheinbar sogar mehr Appetit. Alle Ergebnisse weisen darauf hin, dass die erfindungsgemäß bereitgestellten Verbindungen zum Einsatz in der Chemotherapie von Tumoren bzw. von Infektionskrankheiten geeignet sind. […]

Mdr RNA Synthese = test: PCR check of Mdr gene expression; assay type: cell-based
Method: (§1) Die Intensität der unbehandelten Mdr-Zellen entsprach der 100%-igen Effluxpumpemktivität. Bei mehrfach wiederholten unabhängigen Versuchen in Deutschland und in Ungam wurde eine Inhibition der Effluxpumpen bereits bei 40,0 ng/ml Konzentration zwischen 20-45% gefunden und bei etwa 200,0 ng/ml Konzentration eine 80%-ige Hemmung erreicht. Der 100%-ige Hemmungsbereich liegt etwa zwischen 300-800 ng/ml. Es gab zwar eine erhebliche Schwankung bei der Wiederholung, jedoch fiel immer die 100%-ige Hemmung in den Nanogramm Bereich. Bei der Überprüfung von Mdr-Gen-Expression mittels PCR wurde kein Einfluss dieser ALIS-Verbindung auf die Reduktion oder Verstärkung der Mdr RNA Synthese gefunden. Das ist deshalb günstig, weil die Mdr auch eine wichtige physiologische Rolle bei den Entgiflungsmechanismen der gesunden Zellen (z.B. Nierenzellen) spielt und nach der Beendigung der Therapie das aktive gp-170 Protein wieder produziert werden kann. Außerdem wirkt ALIS-409 auch allein cancerostatisch - und zwar gegenüber gp-170 positiv (EPG85-257RDB) Magencarcinomazellen in vitro. Es wurde die folgende Proliferationshemmung nachgewiesen: 41% bei 100 ng/ml und 74% bei 300 ng/ml.
Die methodische Überprüfung war mit dem Beispiel 3 identisch. Auch die Inhibition der Effluxpumpenaktivitäten waren ähnlich groß. Im Konzentrationsbereich 200-500 ng/ml konnte eine 100%-ige Inhibition erreicht werden. […]

[2] = test system: gp-170 positiv (EPG85-257RDB) Magencarcinomazellen; test: In vitro proliferation inhibition (compound alone); assay type: cell-based
Method: as §1

[3] = Water solubility (stated in heading)
gp-170 Protein = test: Rhodamine-123 efflux pump inhibition assay (cell sorter fluorescence FL1); assay type: cell-based, Maus; conditions: for 100%-ige Hemmungsbereich (concentration range giving 100% inhibition of the efflux pump): considerable variation between repeats
Method: 0,5 ml 2x10^6 /ml L-5178Y parental und Mdr Mauslymphomazellen wurden 10 Min. lang mit 40,0 200,0 und 1000 ng ALIS-409 inkubiert. Danach wurden die Zellen mit Rhodamin-123 Indikatorfarbstoff (Endkonzentration: 5,2 µMol) bei 37C° für 20 Min. inkubiert. Die Zellen wurden mit PBS gewaschen und die Fluoreszenz-Intensität (FL1) mittels Cellsorter gemessen. Die Intensität der unbehandelten parentalen Zellen entsprach der 100%igen Hemmung.
as §1
Die methodische Überprüfung war mit dem Beispiel 3 identisch. Auch die Inhibition der Effluxpumpenaktivitäten waren ähnlich groß. Im Konzentrationsbereich 200-500 ng/ml konnte eine 100%-ige Inhibition erreicht werden. […] Die schnelle Hemmung nach einer 10-minütigen Inkubatioszeit weist auf eine direkte Interaktion zwischen der Substanz und dem gp-170 Protein hin.

[4] = L-5178Y Mdr Mauslymphomazellen, 10 min incubation

Structure (SMILES) | Gewichtsverlust ([1]; 10,0 mg/kg) | survival [1] [%] | Einfluss auf die Mdr-Gen-Expression (Mdr RNA Synthese) (Mdr RNA Synthese) | inhibition at 0.1 µg/mL ([2]; 100 ng/ml, EPG85-257RDB, read-out: Proliferationshemmung) [%] | inhibition at 0.3 µg/mL ([2]; 300 ng/ml, EPG85-257RDB, read-out: Proliferationshemmung) [%] | Wasserlöslichkeit [3] | Inhibition der Effluxpumpen (gp-170 Protein; 40,0 ng/ml, L-5178Y Mdr Mauslymphomazellen, 10 min incubation, repeated independent experiments) | 100%-ige Hemmungsbereich (concentration range giving 100% inhibition of the efflux pump) (gp-170 Protein; [4]) [ng/mL] | Hemmung (Effluxpumpen) (gp-170 Protein; about 200,0 ng/ml, L-5178Y Mdr Mauslymphomazellen, 10 min incubation) [%] | Toxizität ([1]; 10,0 mg/kg) | cancerostatischer Effekt allein ([2]; comparison in words) | Inhibition der Effluxpumpenaktivität (in words) (gp-170 Protein; Mdr tumour cells, qualitative statement)
C[Si](CCCN1CCOCC1)(O[Si](C)(CCCN1CCOCC1)c1ccc(F)cc1)c1ccc(F)cc1 (centres unmarked) [ALIS-409, 1,3-Dimethyl-1,3-bis(4-fluorophenyl)-1,3-bis(3-morpholino-propyl)-disiloxan-dihydrochlorid] | ohne Gewichtsverlust | 100 | kein Einfluss | 41 | 74 | sehr gut wasserlöslich | 20-45% | 300 to 800 | 80 | – | – | –
CCCCN1CCN(CCC[Si](C)(O[Si](C)(CCCN2CCN(CCCC)CC2)c2ccc(F)cc2)c2ccc(F)cc2)CC1 (centres unmarked) [ALIS-421, 1,3-Dimethyl-1,3-bis(4-fluorophenyl)-1,3-bis{3-[1(4-butyl-piperazinyl)]-propyl}-disiloxan-tetrahydrochlorid] | ohne Gewichtsverlust | 100 | keinen Einfluss | – | – | sehr gut wasserlöslich | – | 200 to 500 | – | nicht toxisch | schwächer als bei ALIS 409 | ähnlich groß
